Test results: PMC2710136 (Biochemistry, 2009)
Ends that are not written are not given here.

How the values were obtained:
Conditions in all cases: SD
cSH3 domain of Grb2 = cSH3 domain of Grb2 (Homo sapiens, UniProt P62993); test: ITC binding of Sos1 peptides to wildtype cSH3 domain of Grb2
nSH3 domain of Grb2 = nSH3 domain of Grb2 (Homo sapiens, UniProt P62993); test: ITC binding of Sos1 peptides to wildtype nSH3 domain of Grb2
[1] = biological target: nSH3_D33A mutant domain of Grb2 (Homo sapiens, UniProt P62993, D33A); test: ITC binding of Sos1 peptides to nSH3_D33A mutant domain
[2] = biological target: cSH3_D190A mutant domain of Grb2 (Homo sapiens, UniProt P62993, D190A); test: ITC binding of Sos1 peptides to cSH3_D190A mutant domain
[3] = biological target: cSH3_D187A mutant domain of Grb2 (Homo sapiens, UniProt P62993, D187A); test: ITC binding of Sos1 peptides to cSH3_D187A mutant domain
[4] = biological target: nSH3_E31A mutant domain of Grb2 (Homo sapiens, UniProt P62993, E31A); test: ITC binding of Sos1 peptides to nSH3_E31A mutant domain
Chain of nSH3_E31A mutant domain of Grb2 (P62993 1-58 E31A limits assumed): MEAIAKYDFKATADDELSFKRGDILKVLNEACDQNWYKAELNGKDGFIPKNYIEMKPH

Chain of nSH3 domain of Grb2 (P62993 1-58 limits assumed): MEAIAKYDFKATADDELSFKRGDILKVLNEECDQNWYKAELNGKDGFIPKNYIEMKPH
Chain of cSH3 domain of Grb2 (P62993 156-215 limits assumed): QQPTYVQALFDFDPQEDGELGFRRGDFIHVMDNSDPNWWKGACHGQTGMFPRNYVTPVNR
Chain of cSH3_D190A mutant domain of Grb2 (P62993 156-215 D190A limits assumed): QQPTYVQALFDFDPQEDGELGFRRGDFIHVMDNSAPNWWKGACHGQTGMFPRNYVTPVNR
Chain of cSH3_D187A mutant domain of Grb2 (P62993 156-215 D187A limits assumed): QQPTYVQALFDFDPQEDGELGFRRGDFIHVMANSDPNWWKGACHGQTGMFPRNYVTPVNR
Chain of nSH3_D33A mutant domain of Grb2 (P62993 1-58 D33A limits assumed): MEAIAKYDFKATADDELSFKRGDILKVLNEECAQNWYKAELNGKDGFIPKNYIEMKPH

Row | Kd (cSH3 domain of Grb2) [µM] | Kd (nSH3 domain of Grb2) [µM] | Kd [1] [µM] | Kd [2] [µM] | Kd [3] [µM] | Kd [4] [µM] | Sequence
1 | 1400 ± 87 | 56 ± 5 | – | – | – | – | DSPPAIPPRQPT [Peptide S2]
2 | 1720 ± 33 | 117 ± 2 | – | – | – | – | ESPPLLPPREPV [Peptide S3]
3 | 1320 ± 44 | 82 ± 1 | – | – | – | – | IAGPPVPPRQST [Peptide S4]
4 | 3090 ± 121 | 2560 ± 335 | – | – | – | – | PVPPPVPPAAAP [Peptide S1_AAA]
5 | 962 ± 26 | 490 ± 20 | – | – | – | – | PVPPPVPPARRP [S1_R+5A]
6 | 1570 ± 27 | 84 ± 1 | – | – | – | – | PVPPPVPPRAAP [Peptide S1_AA]
7 | 331 ± 2 | 53 ± 1 | 137 ± 7.6 | 910 ± 57 | 544 ± 102 | 67 ± 0.3 | PVPPPVPPRARP [S1_R+6A]
8 | 318 ± 23 | 72 ± 1 | 169 ± 4.5 | 482 ± 47 | 2390 ± 73 | 91 ± 1.2 | PVPPPVPPRRAP [S1_R+7A]
